Source: PMC11259170, “Small-molecule probe for IBD risk variant GPR65 I231L alters cytokine signaling networks through positive allosteric modulation” (Science Advances, 2024)
Read-outs that look alike come from different tables or passages of the source.

Columns and labels:
[1] = Comment on solubility in SAR table; type: physicochemical
From the text: Supplement sciadv.adn2339_data_s1_to_s4.zip/sciadv.adn2339_data_s2.xlsx, sheet "SAR cAMP Assay"

hGPR65 = biological target: T1, hGPR65 (Homo sapiens, UniProt Q8IYL9); test: cAMP detection in HeLa expression cell line, hGPR65; type: cell-based; conditions: for Emax: HeLa, read-out: hGPR Max Activity %; for Emax / hGPR Max Activity: relative to 100uM forskolin (100%) and DMSO (0%); for hGPR Max Activity: third pair
T1 construct: expressed in transfected cells; host or cells: HeLa (ATCC CCL-2), lentiviral transduction, pLX317
In short: (§1)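 Compound was dispensed from a 10 mM DMSO stock, and puromycin-selected HeLa lines carrying lentiviral V5-tagged receptor were added at 1500 cells/well in pH 7.2 stimulation buffer. After 30 min stimulation at room temperature, cells were lysed and detection ran 1 h in the dark before cAMP TR-FRET reading.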

mGPR65 = biological target: T2, mGPR65 (Mus musculus, UniProt Q61038); test: cAMP detection in HeLa expression cell line, mGPR65; type: cell-based; conditions: for Emax: HeLa, read-out: mGPR Max Activity %; for Emax / mGPR Max Activity: relative to 100uM forskolin (100%) and DMSO (0%); for mGPR Max Activity: third pair
T2 construct: expressed in transfected cells; host or cells: HeLa (ATCC CCL-2), lentiviral transduction, pLX317
In short: as §1

human GPR4 (hGPR4) = biological target: T3, human GPR4 (hGPR4) (Homo sapiens, UniProt P46093); test: cAMP detection in HeLa expression cell line, hGPR4; type: cell-based; conditions: for EC50: pH 7.2, 30 min
T3 construct: expressed in transfected cells; host or cells: HeLa (ATCC CCL-2), lentiviral transduction, pLX317
Experimental: HeLa stable expression cell lines were produced by lentiviral transduction. Briefly, lentiviral plasmids for each GPCR with a C-terminal V5 Tag ([…]) were made in a pLX317 backbone using competent Escherichia coli (New England Biolabs, C3050H). Lenti-X 293 T (Takara, 632810) cells were transfected with the lentiviral plasmids to produce virus. Low-passage HeLa cells (American Type Culture Collection, CCL-2) were then transduced with lentivirus. After 48 hours, HeLa cells were cultured under selection with puromycin (3 μg/ml) and allowed to recover and expand before storing stocks in liquid nitrogen.
cAMP was measured in cells using the Lance Ultra cAMP Kit. HeLa cells were cultured under puromycin (3 μg/ml) selection. One day before the experiment, cells were seeded in T75 flasks and allowed to adhere overnight. On the day of the experiment, cells were washed twice with Dulbecco’s PBS and lifted using prewarmed 1× versene solution (Gibco, 15040066). Cells were counted in HBSS (Gibco, 14025092) and then resuspended in stimulation buffer prepared according to the manufacturer’s instructions and adjusted to pH 7.2 using 1 M sodium hydroxide. Cells were added to the plate at a density of 1500 cells per well in white opaque 384-well assay ready microplates containing 100 nl of 10 mM compound in DMSO. Cells were stimulated for 30 min at RT, then lysed and incubated with detection reagents for 1 hour in the dark at RT. Plates were read on BMG Labtech PHERAstar FSX (excitation, 337 nm; emission, 620 and 665 nm). Data analysis was performed using GraphPad Prism.

[2] = tested on: GFP-expressing HeLa cells; test: cAMP detection in HeLa expression cell line, GFP control; type: cell-based, human; conditions: for EC50 / Emax: Homo sapiens, HeLa; for EC50: SAR cAMP assay; for Emax / GFP Max Activity: relative to 100uM forskolin (100%) and DMSO (0%); for Emax: read-out: GFP Max Activity %; for GFP Max Activity: third pair
In short: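 HeLa cells stably expressing C-terminally V5-tagged receptor or GFP (lentiviral, puromycin 3 μg/ml) stimulated at 1500 cells per well for 30 min at RT with compound (10 mM DMSO stock) in stimulation buffer at pH 7.2. cAMP detected by Lance Ultra TR-FRET after lysis and 1 h detection, excitation 337 nm, emission 620/665 nm.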

hGPR65-SmBiT = biological target: T4, hGPR65-SmBiT (Homo sapiens, UniProt Q8IYL9); test: Nano-BiT target engagement, LgBiT-mGs recruitment to hGPR65-SmBiT in Expi293F cells; type: cell-based; conditions: 10 μM
T4 construct: expressed in transfected cells; host or cells: Expi293F (Gibco), transient transfection
Experimental: (§2) Target engagement was measured in Expi293F (Gibco, 100044202) cells using the Nano-Glo Live Cell Assay System (Promega, N2011). Nano-BiT plasmids were cloned from GPR65-, GPR4-, and GPR68-Tango plasmids. GPR65-Tango (Addgene plasmid # 66370; http://n2t.net/addgene:66370; RRID:Addgene_66370), GPR4-Tango (Addgene plasmid # 66358; http://n2t.net/addgene:66358; RRID:Addgene_66358), and GPR68-Tango (Addgene plasmid # 66371; http://n2t.net/addgene:66371; RRID:Addgene_66371) were gifts from Bryan Roth. Expi293F cells were transfected 1 day before kinetics with 500 ng of each plasmid using ExpiFectamine 293 Transfection Kit (Gibco, A14525). After 24 hours, cells were collected, washed, and resuspended in room temperature 0.1% PBS-BSA, adjusted to pH 7.4 using 1 M NaOH. Cells were transferred to white opaque 96-well microplates (100 μl per well, PerkinElmer, 6005290), followed by addition of the Nano-Glo Live Cell Reagent (25 μl per well). Baseline luminescence was measured for 10 cycles (1 cycle = 90 s) before adding compounds. All luminescence measurements were made on BMG Labtech PHERAstar FSX. Data analysis was performed using GraphPad Prism.

Lipophilicity (logD) = type: physicochemical; conditions: pH 7.4; pH7.4; read-out: LogD (pH7.4)
hGPR4-SmBiT = biological target: T5, hGPR4-SmBiT (Homo sapiens, UniProt P46093); test: Nano-BiT target engagement, LgBiT-mGs recruitment to hGPR4-SmBiT; type: cell-based; conditions: 10 μM
T5 construct: expressed in transfected cells; host or cells: Expi293F (Gibco), transient transfection
Experimental: as §2

[3] = Solubility in phosphate buffer; type: physicochemical; conditions: read-out: Solubility
mGPR65-SmBiT = biological target: T6, mGPR65-SmBiT (Mus musculus, UniProt Q61038); test: Nano-BiT target engagement, LgBiT-mGs recruitment to mGPR65-SmBiT; type: cell-based; conditions: 10 μM
T6 construct: expressed in transfected cells; host or cells: Expi293F (Gibco), transient transfection
Experimental: as §2

[4] = SAR cAMP assay, first EC50/Max pair of hGPR columns, read-out: hGPR EC50
[5] = 2nd mGPR column pair, NA = no activity
[6] = mGPR EC50 (uM), 2nd mGPR column pair, NA = no activity
[7] = mGPR EC50 (uM), first pair of columns, pH 7.2, 30 min
[8] = mGPR EC50 (uM), second pair of columns, pH 7.2, 30 min
[9] = mGPR EC50 (uM), NA = no activity
[10] = 1st hGPR column pair, NA = no activity
[11] = 2nd hGPR column pair, NA = no activity
[12] = hGPR EC50 (uM), NA = no activity
[13] = SAR cAMP assay, third EC50/Max pair of mGPR columns, read-out: mGPR EC50
[14] = third EC50/Max pair of GFP control columns
[15] = SAR cAMP assay, second EC50/Max pair of hGPR columns, read-out: hGPR EC50
[16] = SAR cAMP assay, third EC50/Max pair of hGPR columns, read-out: hGPR EC50

T1 sequence (Q8IYL9 whole entry): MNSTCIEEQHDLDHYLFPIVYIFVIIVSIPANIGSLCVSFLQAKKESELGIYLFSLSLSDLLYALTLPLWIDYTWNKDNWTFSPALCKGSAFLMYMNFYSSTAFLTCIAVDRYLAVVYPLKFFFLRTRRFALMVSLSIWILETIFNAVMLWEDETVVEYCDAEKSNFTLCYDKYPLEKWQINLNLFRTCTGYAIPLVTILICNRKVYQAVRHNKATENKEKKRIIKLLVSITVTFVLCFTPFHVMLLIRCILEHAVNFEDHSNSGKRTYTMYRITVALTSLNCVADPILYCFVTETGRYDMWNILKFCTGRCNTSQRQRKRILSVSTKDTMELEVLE
T2 sequence (Q61038 whole entry): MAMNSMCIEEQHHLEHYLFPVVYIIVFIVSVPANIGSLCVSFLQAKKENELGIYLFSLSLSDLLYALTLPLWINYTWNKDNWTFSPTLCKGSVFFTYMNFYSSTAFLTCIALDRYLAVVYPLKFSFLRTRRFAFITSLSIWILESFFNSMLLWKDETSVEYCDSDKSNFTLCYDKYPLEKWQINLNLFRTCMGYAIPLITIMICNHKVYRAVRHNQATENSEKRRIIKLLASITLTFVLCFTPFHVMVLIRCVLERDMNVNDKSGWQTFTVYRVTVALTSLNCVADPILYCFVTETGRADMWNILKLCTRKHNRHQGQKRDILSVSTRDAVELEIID
T3 sequence (P46093 whole entry): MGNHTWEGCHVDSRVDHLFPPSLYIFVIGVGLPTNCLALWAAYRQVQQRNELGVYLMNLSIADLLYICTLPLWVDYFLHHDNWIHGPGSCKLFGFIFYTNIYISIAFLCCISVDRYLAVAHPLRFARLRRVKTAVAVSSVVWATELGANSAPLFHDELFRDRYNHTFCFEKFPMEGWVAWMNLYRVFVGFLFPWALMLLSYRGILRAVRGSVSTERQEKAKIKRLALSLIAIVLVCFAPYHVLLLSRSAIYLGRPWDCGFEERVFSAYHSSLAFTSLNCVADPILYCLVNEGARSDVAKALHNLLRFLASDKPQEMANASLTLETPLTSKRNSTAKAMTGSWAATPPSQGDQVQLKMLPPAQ
T4 sequence (Q8IYL9 whole entry): as the sequence (Q8IYL9 whole entry) above
T6 sequence (Q61038 whole entry): as the sequence (Q61038 whole entry) above
T5 sequence (P46093 whole entry): as the sequence (P46093 whole entry) above

SMILES	Comments (solubility) [1]	Emax (hGPR65; first pair) [%]	EC50 (hGPR65; [4]) [µM]	Emax (mGPR65; [5]) [%]	Emax (mGPR65; NA = no activity) [%]	EC50 (mGPR65; [6]) [µM]	EC50 (mGPR65; [7]) [µM]	EC50 (mGPR65; [8]) [µM]	EC50 (mGPR65; [9]) [µM]	cAMP activity, mGPR65 (mGPR65; pH 7.2)	Emax (hGPR65; [10]) [%]	Emax (hGPR65; [11]) [%]	EC50 (hGPR65; [12]) [µM]	EC50 (hGPR65; hGPR EC50 (uM), pH 7.2, 30 min) [µM]	EC50 (hGPR65; hGPR EC50, NA = no activity) [µM]	EC50 (hGPR65; hGPR EC50, pH 7.2, 30 min) [µM]	cAMP activity, hGPR65 (hGPR65; pH 7.2)	EC50 (mGPR65; [13]) [µM]	mGPR Max Activity (mGPR65) [%]	EC50 [2, 14] [µM]	other results
Cc1ccc(NC(=O)c2cnn3c(O)cc(-c4ccc(-c5ccncc5)cc4)nc23)cc1 [BRD0844]	Poor solubility.	30.3	7.97																		
COCc1ccc(-c2cc(O)n3ncc(C(=O)Nc4ccc(C(C)C)cc4)c3n2)cc1 [BRD2166, COCc1ccc(cc1)-c1cc(O)n2ncc(C(=O)Nc3ccc(cc3)C(C)C)c2n1]				31.2	39.3	0.347	0.618	0.372	0.362	at least 40%	75	73.7	2.08	2.94	2.12	2.85	at least 40%				cAMP relative to DMSO in the hGPR4 cells (human GPR4 (hGPR4); highest concentration tested): decrease in cAMP; cAMP production relative to BRD2813, hGPR65 (hGPR65; pH 7.2): little effect on cAMP production
Cc1ccc(NC(=O)c2cnn3c(O)cc(-c4ccc(-c5cccc(C(C)C)c5)cc4)nc23)cc1 [BRD4922]	Poor solubility.	47.3	3.82															0.9	35.02	6.47	EC50 ([2]; second EC50/Max pair of GFP control columns): 2.44 µM; Emax ([2]; second pair): 0.205%; GFP Max Activity [2]: 1.632%; Emax (hGPR65; second pair): 51.9%; EC50 (hGPR65; [15]): 1.42 µM; EC50 (hGPR65; [16]): 0.688 µM; hGPR Max Activity (hGPR65): 55.72%
Cc1ccc(NC(=O)c2cnn3c(O)cc(-c4ccc(COC(C)C)c(Cl)c4)nc23)cc1 [BRD5059, O=C(NC1=CC=C(C)C=C1)C2=C3N(N=C2)C(O)=CC(C4=CC=C(COC(C)C)C(Cl)=C4)=N3]				42.2	51	0.379	0.591	0.546	0.505	at least 40%	76	75.4	0.577	0.478	0.288	0.618	at least 40%				mGs recruitment / engagement of hGPR65 (hGPR65-SmBiT): showed engagement; activity after HCl versus water, hGPR65 (hGPR65-SmBiT; HCl or H2O at cycle 10): showed activity when preceded by the addition of HCl but not water; logD (Lipophilicity (logD)): > 5.25; activity for mGPR65 among prioritized molecules (mGPR65; 1.56 μM, pH 7.2): highest activity; response in cells expressing hGPR4-SmBiT (hGPR4-SmBiT): failing to elicit responses; solubility [3]: < 1.56 µM; mGs recruitment / engagement of mGPR65 (mGPR65-SmBiT): showed engagement; activity after HCl versus water, mGPR65 (mGPR65-SmBiT; HCl or H2O at cycle 10): showed activity when preceded by the addition of HCl but not water; EC50 (human GPR4 (hGPR4); GPR4 EC50 (uM)): 1.68 µM; activity for hGPR65 among prioritized molecules (hGPR65; 1.56 μM, pH 7.2): highest activity
Cc1ccc(NC(=O)c2cnn3c(O)cc(-c4ccc(F)c(Cl)c4)nc23)cc1 [BRD5067, O=C(NC1=CC=C(C)C=C1)C2=C3N(N=C2)C(O)=CC(C4=CC=C(F)C(Cl)=C4)=N3]				37.6	41.4	0.537	0.449	0.23	0.328	at least 40%	74.6	69.2	0.232	0.534	0.583	0.554	at least 40%				logD (Lipophilicity (logD)): > 4.89; solubility [3]: < 1.56 µM; EC50 (human GPR4 (hGPR4); GPR4 EC50 (uM)): 0.494 µM; EC50 (human GPR4 (hGPR4); GPR4 EC50, second pair of columns): 0.687 µM; cAMP induction in the hGPR4 cell line (human GPR4 (hGPR4); pH 7.2): additionally induced cAMP; Emax ([2]; 2nd GFP column pair, NA = no activity): 1.17%
Cc1ccc(NC(=O)c2cnn3c(O)cc(-c4cccc(-c5ccccc5)c4)nc23)cc1 [BRD8101]	Poor solubility.																	0.0897	82.45	3.2	Emax (mGPR65; second pair): 73.1%; EC50 (mGPR65; SAR cAMP assay, second EC50/Max pair of mGPR columns, read-out: mGPR EC50): 0.566 µM; GFP Max Activity [2]: 2.825%; Emax (hGPR65; second pair): 7.53%; EC50 (hGPR65; [15]): 9.64 µM; EC50 (hGPR65; [16]): 13.6 µM; hGPR Max Activity (hGPR65): 28.01%
